The subject of assay [1] is Phosphorylated Ribosomal Protein S6 (RPS6). The experiment in a line: THP-1 RPS6 ELISA Assay. The class given is cell-based, Human. The settings on record: Homo sapiens; THP-1 cells; read-out: PI3Kγ_THP1_RPS6_ELISA IC50. Put shortly:
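IC50 values come from a curve of percent inhibition against log compound concentration, using phospho-RPS6 ELISA (450 nm) on THP-1 lysates. Cells were serum-starved overnight, exposed to compound for 2 h at 37 °C, then challenged 15 min with 10 nM MCP-1.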
A general note: ELISA stands for enzyme-linked immunosorbent assay.

Assay [2] concerns the target PI3Kδ (p110δ/p85α) Recombinant Human Protein (Homo sapiens (Human), UniProt O00329). The experiment in a line: PI3Kδ Scintillation Proximity Assay. Format: biochemical. The gist of the method:
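Radiometric read-out: 33P-labelled PIP3 product captured on WGA SPA beads and counted, with IC50 fitted from percent activity relative to DMSO control. Enzyme (3.4 nM) was incubated 120 min at room temperature with 20 μM PIP2 and 2 μM ATP at pH 6.7, 2% DMSO.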

The target in assay [3] is PI3Kγ (p110γ) Recombinant Human Protein (Homo sapiens (Human), UniProt P48736). The experiment in a line: PI3K-γ Scintillation Proximity Assay. The class given is biochemical. The conditions noted are these: read-out: PI3Kγ IC50. The gist of the method:
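Radiometric SPA readout: […] bound to WGA beads after overnight shaking, IC50 derived from % activity of DMSO control. Reaction used human p110γ, 2 μM ATP, 20 μM PIP2, pH 6.7 MOPS buffer with MgCl2, DTT, CHAPS, 2% DMSO, room temperature.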

Where a name gives a salt, the structure may show the parent alone. Bounds are passed on as bounds.

Sequence of PI3Kδ (p110δ/p85α) Recombinant Human Protein (O00329 whole entry): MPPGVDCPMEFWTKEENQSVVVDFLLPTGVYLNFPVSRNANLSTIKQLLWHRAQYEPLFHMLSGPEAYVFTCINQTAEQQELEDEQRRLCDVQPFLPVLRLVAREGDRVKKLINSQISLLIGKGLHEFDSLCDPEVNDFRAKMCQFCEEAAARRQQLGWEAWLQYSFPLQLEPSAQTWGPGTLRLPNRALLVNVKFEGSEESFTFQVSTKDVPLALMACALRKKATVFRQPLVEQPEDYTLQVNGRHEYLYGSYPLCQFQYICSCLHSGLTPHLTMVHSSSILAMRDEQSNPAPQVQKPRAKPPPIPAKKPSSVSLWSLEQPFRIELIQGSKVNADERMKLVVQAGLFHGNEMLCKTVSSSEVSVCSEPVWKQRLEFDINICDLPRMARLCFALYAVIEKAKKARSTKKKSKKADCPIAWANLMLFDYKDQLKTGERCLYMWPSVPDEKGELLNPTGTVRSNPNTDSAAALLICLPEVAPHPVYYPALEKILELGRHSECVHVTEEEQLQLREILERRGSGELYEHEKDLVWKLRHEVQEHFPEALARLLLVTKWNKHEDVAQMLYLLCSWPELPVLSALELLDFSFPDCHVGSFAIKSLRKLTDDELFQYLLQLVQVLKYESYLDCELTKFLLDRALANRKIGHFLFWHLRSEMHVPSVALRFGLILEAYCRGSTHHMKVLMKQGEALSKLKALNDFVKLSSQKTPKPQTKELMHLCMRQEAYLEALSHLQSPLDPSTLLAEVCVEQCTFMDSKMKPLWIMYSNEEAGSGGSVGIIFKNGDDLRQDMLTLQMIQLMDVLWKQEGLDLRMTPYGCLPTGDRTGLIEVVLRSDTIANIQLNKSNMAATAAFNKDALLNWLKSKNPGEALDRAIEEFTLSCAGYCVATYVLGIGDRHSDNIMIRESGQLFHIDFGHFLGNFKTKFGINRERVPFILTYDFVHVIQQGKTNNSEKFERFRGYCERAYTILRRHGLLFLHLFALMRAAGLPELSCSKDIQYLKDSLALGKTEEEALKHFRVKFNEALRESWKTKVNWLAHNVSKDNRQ
Sequence of PI3Kδ (p110δ/p85α) Recombinant Human Protein (P27986 whole entry partner): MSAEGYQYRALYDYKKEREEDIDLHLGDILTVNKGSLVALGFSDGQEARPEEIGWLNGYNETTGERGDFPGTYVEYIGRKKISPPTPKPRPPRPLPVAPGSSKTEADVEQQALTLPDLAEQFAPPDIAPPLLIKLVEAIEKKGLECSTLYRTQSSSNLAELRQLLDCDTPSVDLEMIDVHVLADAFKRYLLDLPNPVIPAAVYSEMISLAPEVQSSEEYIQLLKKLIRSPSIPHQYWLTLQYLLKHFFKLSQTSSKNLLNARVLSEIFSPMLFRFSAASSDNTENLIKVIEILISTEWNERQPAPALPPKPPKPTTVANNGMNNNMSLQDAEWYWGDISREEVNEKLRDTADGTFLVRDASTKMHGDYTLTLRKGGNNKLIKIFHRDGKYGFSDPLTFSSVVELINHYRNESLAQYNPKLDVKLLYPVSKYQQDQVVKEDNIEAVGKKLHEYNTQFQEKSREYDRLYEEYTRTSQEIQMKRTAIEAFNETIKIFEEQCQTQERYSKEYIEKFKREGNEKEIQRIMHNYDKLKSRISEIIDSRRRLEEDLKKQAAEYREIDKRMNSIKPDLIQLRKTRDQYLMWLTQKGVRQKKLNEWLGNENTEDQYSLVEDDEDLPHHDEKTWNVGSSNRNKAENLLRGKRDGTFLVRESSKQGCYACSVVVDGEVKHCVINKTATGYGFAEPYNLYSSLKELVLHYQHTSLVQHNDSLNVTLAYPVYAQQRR
Sequence of PI3Kγ (p110γ) Recombinant Human Protein (P48736 whole entry): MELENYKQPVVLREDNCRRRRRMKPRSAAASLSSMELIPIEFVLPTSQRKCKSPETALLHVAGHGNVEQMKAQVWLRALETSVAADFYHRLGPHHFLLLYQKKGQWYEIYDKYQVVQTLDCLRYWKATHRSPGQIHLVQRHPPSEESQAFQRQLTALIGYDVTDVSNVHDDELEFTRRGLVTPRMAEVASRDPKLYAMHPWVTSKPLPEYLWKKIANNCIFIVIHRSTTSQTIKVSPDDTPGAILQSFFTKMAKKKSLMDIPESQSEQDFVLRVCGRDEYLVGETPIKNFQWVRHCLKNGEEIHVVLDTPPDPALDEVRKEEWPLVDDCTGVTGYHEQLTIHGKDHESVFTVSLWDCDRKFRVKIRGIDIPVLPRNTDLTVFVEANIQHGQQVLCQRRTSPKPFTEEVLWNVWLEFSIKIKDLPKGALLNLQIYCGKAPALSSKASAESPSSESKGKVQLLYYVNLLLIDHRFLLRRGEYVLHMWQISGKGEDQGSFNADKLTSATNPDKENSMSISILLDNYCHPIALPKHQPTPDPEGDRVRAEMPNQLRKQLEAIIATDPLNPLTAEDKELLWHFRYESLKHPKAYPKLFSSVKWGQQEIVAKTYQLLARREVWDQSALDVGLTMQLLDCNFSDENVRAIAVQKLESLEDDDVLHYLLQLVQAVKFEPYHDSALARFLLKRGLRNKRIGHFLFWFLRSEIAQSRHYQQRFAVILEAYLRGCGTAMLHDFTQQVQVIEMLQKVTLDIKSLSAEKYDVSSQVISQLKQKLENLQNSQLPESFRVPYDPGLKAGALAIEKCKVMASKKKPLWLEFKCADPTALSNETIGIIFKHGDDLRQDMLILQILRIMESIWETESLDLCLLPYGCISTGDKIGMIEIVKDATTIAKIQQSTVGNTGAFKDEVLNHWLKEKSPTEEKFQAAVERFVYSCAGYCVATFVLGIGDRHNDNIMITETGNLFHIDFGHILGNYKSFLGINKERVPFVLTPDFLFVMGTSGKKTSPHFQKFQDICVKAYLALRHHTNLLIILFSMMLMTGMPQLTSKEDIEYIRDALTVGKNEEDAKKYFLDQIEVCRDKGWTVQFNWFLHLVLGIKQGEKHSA

What is called IC50 is the concentration that inhibits the measured activity by half. As for `Cc1ccc(S(=O)(=O)N(C)[C@H]2CC[C@H](O)CC2)cc1-c1cnc2c(N)ncnn12` [Example 69, 3-(4-Aminoimidazo[2,1-f][1,2,4]triazin-7-yl)-N-(trans-4-hydroxycyclohexyl)-N,4-dimethylbenzenesulfonamide], the IC50 is 100 to 500 nM in assay [1], 500 to 2000 nM in assay [2] and under 100 nM in assay [3].
Taken in the same sequence, the figures for `CO[C@H]1CC[C@H](NS(=O)(=O)c2ccc(C)c(-c3cnc4c(N)ncnn34)c2)CC1` [Example 70, 3-(4-Aminoimidazo[2,1-f][1,2,4]triazin-7-yl)-N-(trans-4-methoxycyclohexyl)-4-methylbenzenesulfonamide] were over 1000 nM, 500 to 2000 nM and under 100 nM.
On to `Cc1ccc(S(=O)(=O)N[C@H]2C[C@H](O)C2)cc1-c1cnc2c(N)ncnn12` [Example 71, 3-(4-Aminoimidazo[2,1-f][1,2,4]triazin-7-yl)-N-(trans-3-hydroxycyclobutyl)-4-methylbenzenesulfonamide], for which the IC50 was 100 to 500 nM in assay [1], over 2000 nM in assay [2] and under 100 nM in assay [3].
As to `Cc1ccc(S(=O)(=O)N[C@H]2CC[C@H](NC(=O)OC(C)(C)C)CC2)cc1-c1cnc2c(N)ncnn12` [Example 72, tert-Butyl [trans-4-({[3-(4-aminoimidazo[2,1-f][1,2,4]triazin-7-yl)-4-methylphenyl]sulfonyl}amino)cyclohexyl]carbamate], the IC50 is over 1000 nM in assay [1], over 2000 nM in assay [2] and under 100 nM in assay [3].
As to `Cc1ccc(S(=O)(=O)N[C@H]2CC[C@H](N)CC2)cc1-c1cnc2c(N)ncnn12` [Example 73, bis-hydrochloride], the half-inhibitory concentration (IC50) was over 1000 nM in assay [1], 500 to 2000 nM in assay [2] and under 100 nM in assay [3].
In the case of `CC(=O)N[C@H]1CC[C@H](NS(=O)(=O)c2ccc(C)c(-c3cnc4c(N)ncnn34)c2)CC1` [Example 74, N-[trans-4-({[3-(4-Aminoimidazo[2,1-f][1,2,4]triazin-7-yl)-4-methylphenyl]sulfonyl}amino)cyclohexyl]acetamide], the IC50 in assay [1] was over 1000 nM; in assay [2], 500 to 2000 nM; in assay [3], under 100 nM.
For `Cc1cc(-c2cn3c(-c4cc(S(=O)(=O)N[C@H]5CC[C@H](O)CC5)ccc4C)cnc3c(N)n2)on1` [Example 75, 3-[8-Amino-6-(3-methylisoxazol-5-yl)imidazo[1,2-a]pyrazin-3-yl]-N-(trans-4-hydroxycyclohexyl)-4-methylbenzenesulfonamide], in that order: 100 to 500 nM, under 100 nM and under 100 nM.
Take `Cc1ccc(S(=O)(=O)N[C@H]2CC[C@H](O)CC2)cc1-c1cnc2c(N)nc(-c3cnn(CC(F)(F)F)c3)cn12` [Example 76, 3-{8-amino-6-[1-(2,2,2-trifluoroethyl)-1H-pyrazol-4-yl]imidazo[1,2-a]pyrazin-3-yl}-N-(trans-4-hydroxycyclohexyl)-4-methylbenzenesulfonamide]: the IC50 in assay [1] was 100 to 500 nM; in assay [2], 100 to 500 nM; in assay [3] it was under 100 nM.
On to `Cc1ccc(S(=O)(=O)N[C@H]2CC[C@H](O)CC2)cc1-c1cnc2c(N)nc(-c3c(C)noc3C)cn12` [Example 77, 3-[8-amino-6-(3,5-dimethylisoxazol-4-yl)imidazo[1,2-a]pyrazin-3-yl]-N-(trans-4-hydroxycyclohexyl)-4-methylbenzenesulfonamide], for which the IC50 was 100 to 500 nM in assay [1], 100 to 500 nM in assay [2] and under 100 nM in assay [3].
In the case of `Cc1ccc(S(=O)(=O)N[C@H]2CC[C@H](O)CC2)cc1-c1cnc2c(N)nc(-c3cnn(C(C)(C)C#N)c3)cn12` [Example 78, 3-{8-amino-6-[1-(1-cyano-1-methylethyl)-1H-pyrazol-4-yl]imidazo[1,2-a]pyrazin-3-yl}-N-(trans-4-hydroxycyclohexyl)-4-methylbenzenesulfonamide], the figures for the IC50 in assay [1], in assay [2] and in assay [3] were 500 to 1000 nM, 100 to 500 nM and under 100 nM, respectively.

For the origin of these results see patent US10479795B2 (Incyte Corporation, priority 2016, dated 2019).
